Test results as given in patent US5215972A, “Steroids” (Hoffmann-La Roche Inc., priority 1989, dated 1993).
Counter-ions that a name gives are not always drawn. Like-named read-outs stand apart in the source and are kept apart here.

Key:
[1] = tested on: intestinal resorption of cholesterol; test: Inhibition of intestinal resorption of [26-^14 C]-cholesterol (CHORES) in squirrel monkeys; type: in vivo; settings: Primates, po, 60 h, 100 μmol/kg p.o., percent of control values determined prior to medication (pre-period), feces collected 2.5 days
Text: Squirrel monkeys are orally administered the substances to be investigated together with a test feed containing a protein, starch, triolein and [26-^14 C]-cholesterol. Thereafter, the feces is collected for 2.5 days. The difference between the administered and the collected radioactive cholesterol determined in the feces is taken as the measurement of resorbed cholesterol. The cholesterol resorption (CHORES) is expressed in percentages of the control values determined prior to the medication.
(§1) The results which have been obtained with some representative products in accordance with the invention are reproduced in Table I. For each of the compounds indicated in Table I the cholesterol resorption, determined at a dosage of 100 μmol/kg p.o., is given in percentages of the control values determined prior to the medication (pre-period). Moreover, the Table contains data concerning the acute toxicity of the compounds investigated (LD50 in mg/kg in the case of single oral or intravenous administration to mice).

[2] = Acute toxicity, single oral or intravenous administration to mice; settings: mouse, in vivo
Text: as §1

[3] = i.v., single intravenous administration to mice, read-out: LD50 i.v.
[4] = p.o., single oral administration to mice, read-out: LD50 p.o.

With `CC[C@H](CC[C@@H](C)[C@H]1CC[C@H]2[C@@H]3CC[C@H]4C[C@@H](OC(=O)OCCOP(=O)([O-])OCC[N+](C)(C)C)CC[C@]4(C)[C@H]3CC[C@]12C)C(C)C` [Example 2a, O-[[2-[[(5α-stigmastan-3β-yloxy)carbonyl]oxy]ethoxy]hydroxyphosphinyl]choline hydroxide internal salt] as the molecule, how does the response vs control in vivo at 100 µmol/kg [1] read?
Its response vs control in vivo at 100 µmol/kg is 38%.

And the LD50 [2, 3]?
The LD50 was 250 mg/kg.

And the LD50 [2, 4]?
Its LD50 is 4000 mg/kg.

With `CC[C@H](CC[C@@H](C)[C@H]1CC[C@H]2[C@@H]3CC[C@H]4C[C@@H](OC(=O)CCCOP(=O)([O-])OCC[N+](C)(C)C)CC[C@]4(C)[C@H]3CC[C@]12C)C(C)C` [Example 2k, O-[hydroxy-[3-[(3β-stigmastanyloxy)carbonyl]propoxy]phosphinyl]choline hydroxide internal salt] as the molecule, how does the response vs control in vivo at 100 µmol/kg [1] read?
Its response vs control in vivo at 100 µmol/kg is 39%.

What about the LD50 [2, 3] of the same molecule?
The LD50 was 250 mg/kg.

And the LD50 [2, 4]?
The LD50 was 4000 mg/kg.

For `CC(C)CCC[C@@H](C)[C@H]1CC[C@H]2[C@@H]3CC=C4C[C@@H](OCCOP(=O)([O-])OCC[N+](C)(C)C)CC[C@]4(C)[C@H]3CC[C@]12C` [Example 2q, O-[[2-(cholest-5-en-3β-yloxy)ethoxy]hydroxyphosphinyl]choline hydroxide internal salt], which response vs control in vivo at 100 µmol/kg [1] is on record?
The response vs control in vivo at 100 µmol/kg was 16%.

And the LD50 [2, 3]?
Its LD50 is 250 mg/kg.

What about the LD50 [2, 4] of the same molecule?
Its LD50 is 4000 mg/kg.

What does the source list for `CC[C@H](/C=C/[C@@H](C)[C@H]1CC[C@H]2[C@@H]3CC=C4C[C@@H](OCCOP(=O)([O-])OCC[N+](C)(C)C)CC[C@]4(C)[C@H]3CC[C@]12C)C(C)C` [Example 2r, O-[hydroxy-[2-(stigmasta-5,22-dien-3β-yloxy)ethoxy]phosphinyl]cholinehydroxide internal salt]?
response vs control in vivo at 100 µmol/kg [1]: 37%; LD50 [2, 3]: 500 mg/kg; LD50 [2, 4]: 4000 mg/kg

For `CC[C@H](CC[C@@H](C)[C@H]1CC[C@H]2[C@@H]3CC[C@H]4C[C@@H](OCCOCCOP(=O)([O-])OCC[N+](C)(C)C)CC[C@]4(C)[C@H]3CC[C@]12C)C(C)C` [Example 4a, O-[hydroxy-[2-[2-(3β-stigmastanyloxy)ethoxy]ethoxy]phosphinyl]cholinehydroxide internal salt], which response vs control in vivo at 100 µmol/kg [1] is on record?
Its response vs control in vivo at 100 µmol/kg is 30%.

With `CC[C@H](CC[C@@H](C)[C@H]1CC[C@H]2[C@@H]3CC[C@H]4C[C@@H](OC(=O)NCCOP(=O)([O-])OCC[N+](C)(C)C)CC[C@]4(C)[C@H]3CC[C@]12C)C(C)C` [Example 5, O-[hydroxy-[2-[1-(5α-stigmastan-3β-yloxy)formamido]ethoxy]phosphinyl]choline hydroxide internal salt] as the molecule, how does the response vs control in vivo at 100 µmol/kg [1] read?
Its response vs control in vivo at 100 µmol/kg is 40%.

Which response vs control in vivo at 100 µmol/kg [1] does the source give for `CC[C@H](CC[C@@H](C)[C@H]1CC[C@H]2[C@@H]3CC[C@H]4C[C@@H](OC(=O)NCCOP(=O)([O-])OCC[n+]5ccccc5)CC[C@]4(C)[C@H]3CC[C@]12C)C(C)C` [Example 6, 1-[2-[[hydroxy-[2-[1-(5α-stigmastan-3β-yloxy)-formamido]ethoxy]phosphinyl]oxy]ethyl]pyridinum hydroxide internal salt] here?
The response vs control in vivo at 100 µmol/kg was 31%.

What about the LD50 [2, 4] of the same molecule?
The LD50 was 4000 mg/kg.

Which response vs control in vivo at 100 µmol/kg [1] does the source give for `CC[C@H](/C=C/[C@@H](C)[C@H]1CC[C@H]2[C@@H]3CC=C4C[C@@H](OC(=O)NCCOP(=O)([O-])OCC[N+](C)(C)C)CC[C@]4(C)[C@H]3CC[C@]12C)C(C)C` [Example 7a, O-[hydroxy-[2-[1-[(E)-stigmasta-5,22-dien-3β-yloxy]formamido]ethoxy]phosphinyl]choline hydroxide internal salt] here?
The response vs control in vivo at 100 µmol/kg was 35%.

For `CC[C@H](CC[C@@H](C)[C@H]1CC[C@H]2[C@@H]3CC=C4C[C@@H](OC(=O)OCCOP(=O)([O-])OCC[N+](C)(C)C)CC[C@]4(C)[C@H]3CC[C@]12C)C(C)C` [Example 16, O-[hydroxy-[2-[[(stigmast-5-en-3β-yloxy)carbonyl]oxy]ethoxy]-phosphinyl]choline hydroxide internal salt], which response vs control in vivo at 100 µmol/kg [1] is on record?
The response vs control in vivo at 100 µmol/kg was 40%.
